Results reported in ChEMBL document CHEMBL1201862, “PubChem BioAssay data set” (2004).
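Dose response: 5 concentrations. Exposure: 48 h. Format: 96-well plates. Endpoint: linear interpolation; highest concentration if not reached. GI50 is the concentration that inhibits growth by half.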 Active and inactive are the calls of the source. No stated cut-off is given here; in the data, active = GI50 up to about 1.1 µM and inactive = higher.

What was measured:
Experiment in all cases: inhibition of tumour cell growth, NCI panel, 48 h
HOP-92 = test system: HOP-92
HCT-15 = test system: HCT-15
A549 = test system: A549
IGROV-1 = test system: IGROV-1
UACC-62 = test system: UACC-62
SF-268 = test system: SF-268
MCF7 = test system: MCF7
NCI/ADR-RES = test system: NCI/ADR-RES
RXF 393 = test system: RXF 393
UACC-257 = test system: UACC-257
MDA-MB-435 = test system: MDA-MB-435
HOP-62 = test system: HOP-62
NCI-H522 = test system: NCI-H522
RPMI-8226 = test system: RPMI-8226
LOX IMVI = test system: LOX IMVI
SF-539 = test system: SF-539
A498 = test system: A498
DU-145 = test system: DU-145
OVCAR-5 = test system: OVCAR-5
CAKI-1 = test system: CAKI-1

Row | SMILES | GI50 (HOP-92) | GI50 (HCT-15) | GI50 (A549) | GI50 (IGROV-1) | GI50 (UACC-62) | GI50 (SF-268) | GI50 (MCF7) | GI50 (NCI/ADR-RES) | GI50 (RXF 393) | GI50 (UACC-257) | GI50 (MDA-MB-435) | GI50 (HOP-62) | GI50 (NCI-H522) | GI50 (RPMI-8226) | GI50 (LOX IMVI) | GI50 (SF-539) | GI50 (A498) | GI50 (DU-145) | GI50 (OVCAR-5) | GI50 (CAKI-1)
1 | COc1ccc(/C=C/c2cc(=O)cc(/C=C/c3ccc(OC)c(O)c3)o2)cc1O | 3.39 µM (inactive) | 2.29 µM | 3.14 µM (inactive) | 3.22 µM (inactive) | 1.75 µM (inactive) | 3.02 µM (inactive) | 2.14 µM (inactive) | 2.89 µM (inactive) | 1.11 µM (active) | 2.04 µM (inactive) | 0.971 µM (active) | 3.41 µM (inactive) | 2.24 µM (inactive) | 0.317 µM (active) | 1.76 µM (inactive) | 1.98 µM (inactive) | 3.53 µM (inactive) | 2.92 µM (inactive) | 9.4 µM (inactive) | 3.55 µM (inactive)
2 | CC(C)(C)OC(=O)CN1CCNCCNCC1 | > 100 µM (inactive) | > 100 µM | > 100 µM (inactive) | > 100 µM (inactive) | > 100 µM (inactive) | > 100 µM (inactive) | > 100 µM (inactive) | > 100 µM (inactive) | > 100 µM (inactive) | > 100 µM (inactive) | > 100 µM (inactive) | > 100 µM (inactive) | > 100 µM (inactive) | > 100 µM (inactive) | > 100 µM (inactive) | > 100 µM (inactive) | > 100 µM (inactive) | > 100 µM (inactive) | > 100 µM (inactive) | > 100 µM (inactive)
3 | CCc1nc(N)nc(N)c1-c1ccc(Cl)c(/N=C/N(C)C)c1 | > 90.4 µM (inactive) | 10.4 µM | 15.3 µM (inactive) | 27.1 µM (inactive) | 35.8 µM (inactive) | 62.1 µM (inactive) | 57.8 µM (inactive) | > 93.1 µM (inactive) | > 89.3 µM (inactive) | > 100 µM (inactive) | 45.9 µM (inactive) | 63.7 µM (inactive) | 24.1 µM (inactive) | 54.3 µM (inactive) | 19.2 µM (inactive) | 45.3 µM (inactive) | 86.9 µM (inactive) | 81.1 µM (inactive) | > 100 µM (inactive) | 53.8 µM (inactive)
4 | O=C1c2ccccc2-[n+]2ccc3c([nH]c4ccccc43)c21 [FASCAPLYSIN CHLORIDE] | 1.66 µM (inactive) | 0.851 µM | 0.565 µM (active) | 0.196 µM (active) | 0.242 µM (active) | 0.247 µM (active) | 0.184 µM (active) | 1.21 µM (inactive) | 0.384 µM (active) | 0.327 µM (active) | 0.179 µM (active) | 1.14 µM (inactive) | 0.49 µM (active) | 0.186 µM (active) | 0.245 µM (active) | 0.349 µM (active) | 1.58 µM (inactive) | 1.15 µM (inactive) | 0.48 µM (active) | 0.659 µM (active)
5 | CCOC(=O)CCC(NC(=O)c1ccc(OCc2ccc3nc(-c4ccccc4)c(Cl)nc3c2)cc1)C(=O)OCC (stereo not given) | 15.6 µM (inactive) | > 31.6 µM | 19.5 µM (inactive) | 22.1 µM (inactive) | > 31.6 µM (inactive) | 15 µM (inactive) | 27.4 µM (inactive) | 16.7 µM (inactive) | 2.08 µM (inactive) | > 31.6 µM (inactive) | > 31.6 µM (inactive) | > 31.6 µM (inactive) | 17.4 µM (inactive) | 18.9 µM (inactive) | > 100 µM (inactive) | 15.8 µM (inactive) | 36.1 µM (inactive) | > 31.6 µM (inactive) | > 31.6 µM (inactive) | > 69 µM (inactive)
6 | CNC(=O)N(CCC#N)CCCN(C(=O)N(C)C)c1ccccc1 | > 100 µM (inactive) | > 100 µM | > 100 µM (inactive) | > 100 µM (inactive) | > 100 µM (inactive) | > 100 µM (inactive) | > 100 µM (inactive) | > 100 µM (inactive) | > 100 µM (inactive) | > 100 µM (inactive) | > 100 µM (inactive) | > 100 µM (inactive) | > 100 µM (inactive) | > 100 µM (inactive) | > 100 µM (inactive) | > 100 µM (inactive) | > 100 µM (inactive) | > 100 µM (inactive) | > 100 µM (inactive) | > 100 µM (inactive)
7 | CCCN(CCCC(NC(C)=O)C(=O)NCc1ccccc1)C(=O)N(CCCl)N=O (stereo not given) | 17.1 µM (inactive) | 15.5 µM | 5.83 µM (inactive) | 27 µM (inactive) | 1.04 µM (active) | 1.42 µM (inactive) | > 100 µM (inactive) | > 100 µM (inactive) | 17.8 µM (inactive) | 28.8 µM (inactive) | > 100 µM (inactive) | 2.73 µM (inactive) | 20.7 µM (inactive) | 28.2 µM (inactive) | 2.11 µM (inactive) | 0.977 µM (active) | 13.3 µM (inactive) | > 100 µM (inactive) | 34.4 µM (inactive) | 17.6 µM (inactive)
